Experimental data taken from patent US11986480B2, “Heterocyclic compound” (TOHOKU UNIVERSITY, priority 2017, dated 2024).

Legend:
Format in all cases: cell-based
[1] = target: T1, Brd4 (Homo sapiens, UniProt O60885); assay: Test Example 4: A549 cells, Western blot Brd4/actin (Testing Method D); design: endogenous in cells; conditions: BRD4, 1 uM, 24 hours, 1 or less = degradation promoted
Protocol: Test Example 4: Evaluation Using A549 Cell (Testing Method D)
(§1) A549 cells were inoculated to Dulbecco's Modified Eagle Medium (DMEM) and cultured for 24 hours. A test compound (specifically, compounds of Examples 57 and 58) was added thereto at the final concentration shown in Table 2, followed by incubation for 24 hours under conditions of 37° C./5% CO2. The cells were washed with PBS three times and treated with a cell lysis solution containing a proteolytic enzyme inhibitor to obtain a cell extract. The cell extract was subjected to SDS-PAGE. After the electrophoresis, Brd4 and actin were detected by Western blot. The ratio of the Brd4/actin value of the drug-treated cells to the Brd4/actin value of a control group in drug-untreated cells was regarded as an activity value. A value of 1 or less represents that degradation of Brd4 was promoted.

[2] = target: T1, Brd4; assay: Test Example 3: HeLa cells, Western blot Brd4/actin (Testing Method C); design: endogenous in cells; host or cells: HeLa; conditions: 24 hours, 1 or less = degradation promoted
Protocol: Test Example 3: Evaluation Using HeLa Cell (Testing Method C)
as §1, with “HeLa” for “A549”, “47 to 52, 59” for “57”, “60)” for “58)”, “Brd4, FKBP12 or MetAP2” for “Brd4”, “Brd4, FKBP12 or MetAP2/actin” for “Brd4/actin”

[3] = system: EmGFP-HaloTag; assay: Test Example 2: HeLa cells transiently overexpressing EmGFP-HaloTag, Western blot GFP/actin (Testing Method B); conditions: 24 hours, 1 or less = degradation promoted
Protocol: Test Example 2: Evaluation Using Cell Transiently Overexpressing EmGFP-HaloTag (Testing Method B)
HeLa cells were inoculated to Dulbecco's Modified Eagle Medium (DMEM) and cultured for 24 hours. Cells overexpressing EmGFP-HaloTag were obtained by transfection with a plasmid pCMV-EmGFP-HaloTag encoding EmGFP-HaloTag. On the next day, a test compound (specifically, compounds of Examples 8, 12, 16, 21 to 23, 28, 30 and 31) was added thereto at the final concentration shown in Table 2, followed by incubation for 24 hours under conditions of 37° C./5% CO2. The cells were washed with PBS three times and treated with a cell lysis solution containing a proteolytic enzyme inhibitor to obtain a cell extract. The cell extract was subjected to SDS-PAGE. After the electrophoresis, GFP and actin were detected by Western blot. The ratio of the GFP/actin value of the drug-treated cells to the GFP/actin value of a control group in drug-untreated cells was regarded as an activity value. A value of 1 or less represents that degradation of EmGFP-HaloTag was promoted.

Cc1sc2c(c1C)C(c1ccc(Cl)cc1)=N[C@@H](CC(=O)NCCCOCCOCCOCCCNc1nc3c(=O)[nH]c(N)nc3n1Cc1ccc(F)cc1)c1nnc(C)n1-2 [Example 58, N-(3-(2-(2-(3-((2-Amino-9-(4-fluorobenzyl)-6-oxo-6,9-dihydro-1H-purin-8-yl)amino)propoxy)ethoxy)ethoxy)propyl)-2-((6S)-4-(4-chlorophenyl)-2,3,9-trimethyl-6H-thieno[3,2-f][1,2,4]triazolo[4,3-a][1,4]diazepin-6-yl)acetamide]
Activity value (Brd4/actin of drug-treated cells relative to drug-untreated control) [1]: 0.8

CC(=O)N[C@@H](CSc1nc2c(=O)[nH]c(N)nc2n1Cc1ccc(F)cc1)C(=O)NCCOCCOCCOCCNC(=O)C[C@@H]1N=C(c2ccc(Cl)cc2)c2c(sc(C)c2C)-n2c(C)nnc21 [Example 51, N^2-Acetyl-S-(2-amino-9-(4-fluorobenzyl)-6-oxo-6,9-dihydro-1H-purin-8-yl)-N-(14-((6S)-4-(4-chlorophenyl)-2,3,9-trimethyl-6H-thieno[3,2-f][1,2,4]triazolo[4,3-a][1,4]diazepin-6-yl)-13-oxo-3,6,9-trioxa-12-azatetradec-1-yl)-L-cysteinamide]
Activity value (Brd4/actin of drug-treated cells relative to drug-untreated control) ([2]; BRD4, 1 uM): 0.6

Cc1sc2c(c1C)C(c1ccc(Cl)cc1)=N[C@@H](CC(=O)NCCOCCOCCOCCNC(=O)/C=C/c1nc3c(=O)[nH]c(N)nc3n1Cc1ccc(F)cc1)c1nnc(C)n1-2 [Example 52, (2E)-3-(2-Amino-9-(4-fluorobenzyl)-6-oxo-6,9-dihydro-1H-purin-8-yl)-N-(14-((6S)-4-(4-chlorophenyl)-2,3,9-trimethyl-6H-thieno[3,2-f][1,2,4]triazolo[4,3-a][1,4]diazepin-6-yl)-13-oxo-3,6,9-trioxa-12-azatetradec-1-yl)acrylamide]
Activity value (Brd4/actin of drug-treated cells relative to drug-untreated control) ([2]; BRD4, 10 uM): 0.8

Cc1sc2c(c1C)C(c1ccc(Cl)cc1)=N[C@@H](CC(=O)NCCOCCOCCOCCNC(=O)c1cccc(-c3nc4c(=O)[nH]c(N)nc4n3Cc3ccc(F)cc3)c1)c1nnc(C)n1-2 [Example 48, 3-(2-Amino-9-(4-fluorobenzyl)-6-oxo-6,9-dihydro-1H-purin-8-yl)-N-(14-((6S)-4-(4-chlorophenyl)-2,3,9-trimethyl-6H-thieno[3,2-f][1,2,4]triazolo[4,3-a][1,4]diazepin-6-yl)-13-oxo-3,6,9-trioxa-12-azatetradec-1-yl)benzamide]
Activity value (Brd4/actin of drug-treated cells relative to drug-untreated control) ([2]; BRD4, 10 uM): 0.8

CC(=O)N[C@@H](CSc1nc2c(=O)[nH]c(N)nc2n1Cc1ccc(C)cc1)C(=O)NCCOCCOCCOCCNC(=O)C[C@@H]1N=C(c2ccc(Cl)cc2)c2c(sc(C)c2C)-n2c(C)nnc21 [Example 49, N^2-Acetyl-S-(2-amino-9-(4-methylbenzyl)-6-oxo-6,9-dihydro-1H-purin-8-yl)-N-(14-((6S)-4-(4-chlorophenyl)-2,3,9-trimethyl-6H-thieno[3,2-f][1,2,4]triazolo[4,3-a][1,4]diazepin-6-yl)-13-oxo-3,6,9-trioxa-12-azatetradec-1-yl)-L-cysteinamide]
Activity value (Brd4/actin of drug-treated cells relative to drug-untreated control) ([2]; BRD4, 1 uM): 0.8

CC(=O)N[C@@H](CSc1nc2c(=O)[nH]c(N)nc2n1Cc1ccc(F)cc1)C(=O)NCCCOCCOCCOCCCNC(=O)C[C@@H]1N=C(c2ccc(Cl)cc2)c2c(sc(C)c2C)-n2c(C)nnc21 [Example 57, N^2-Acetyl-S-(2-amino-9-(4-fluorobenzyl)-6-oxo-6,9-dihydro-1H-purin-8-yl)-N-(1-((6S)-4-(4-chlorophenyl)-2,3,9-trimethyl-6H-thieno[3,2-f][1,2,4]triazolo[4,3-a][1,4]diazepin-6-yl)-2-oxo-7,10,13-trioxa-3-azahexadecan-16-yl)-L-cysteinamide]
Activity value (Brd4/actin of drug-treated cells relative to drug-untreated control) [1]: 0.9

Cc1sc2c(c1C)C(c1ccc(Cl)cc1)=N[C@@H](CC(=O)NCCOCCOCCOCCNC(=O)c1nc3c(=O)[nH]c(N)nc3n1Cc1ccc(F)cc1)c1nnc(C)n1-2 [Example 47, 2-Amino-N-(14-((6S)-4-(4-chlorophenyl)-2,3,9-trimethyl-6H-thieno[3,2-f][1,2,4]triazolo[4,3-a][1,4]diazepin-6-yl)-13-oxo-3,6,9-trioxa-12-azatetradec-1-yl)-9-(4-fluorobenzyl)-6-oxo-6,9-dihydro-1H-purine-8-carboxamide]
Activity value (Brd4/actin of drug-treated cells relative to drug-untreated control) ([2]; BRD4, 1 uM): 0.4

CC(=O)N[C@@H](CSc1nc2c(=O)[nH]c(N)nc2n1Cc1ccc(Cl)cc1)C(=O)NCCOCCOCCOCCNC(=O)C[C@@H]1N=C(c2ccc(Cl)cc2)c2c(sc(C)c2C)-n2c(C)nnc21 [Example 50, N^2-Acetyl-S-(2-amino-9-(4-chlorobenzyl)-6-oxo-6,9-dihydro-1H-purin-8-yl)-N-(14-((6S)-4-(4-chlorophenyl)-2,3,9-trimethyl-6H-thieno[3,2-f][1,2,4]triazolo[4,3-a][1,4]diazepin-6-yl)-13-oxo-3,6,9-trioxa-12-azatetradec-1-yl)-L-cysteinamide]
Activity value (Brd4/actin of drug-treated cells relative to drug-untreated control) ([2]; BRD4, 1 uM): 0.2

CC(=O)N[C@@H](CSc1nc2c(=O)n(C)c(N)nc2n1Cc1ccc(F)cc1)C(=O)NCCOCCOCCOCCOCCOCCCCCCCl [Example 30, N^2-Acetyl-S-(2-amino-9-(4-fluorobenzyl)-1-methyl-6-oxo-6,9-dihydro-1H-purin-8-yl)-N— (21-chloro-3,6,9,12,15-pentaoxahenicos-1-yl)-L-cysteinamide]
Activity value (GFP/actin of drug-treated cells relative to drug-untreated control) ([3]; 1 uM): 0.2

Nc1nc2c(nc(C#CCOCCOCCOCCOCCOCCOCCCCCCCl)n2Cc2ccc(F)cc2)c(=O)[nH]1 [Example 16, 2-Amino-8-(25-chloro-4,7,10,13,16,19-hexaoxapentacos-1-yn-1-yl)-9-(4-fluorobenzyl)-1,9-dihydro-6H-purin-6-one]
Activity value (GFP/actin of drug-treated cells relative to drug-untreated control) ([3]; 10 uM): 0.4
